Data taken from ChEMBL document CHEMBL2169818, “Syntheses and biological activities of sulfoximine-based acyclic triaryl olefins” (Bioorg Med Chem Lett, 2012).

What was measured:
[1] = molecular target: Estrogen receptor beta (Homo sapiens) (UniProt Q92731); test: Displacement of [3H]-estradiol from human recombinant ERbeta expressed in Sf21 cells at 10 uM after 2 hrs
[2] = molecular target: T1, Estrogen receptor (Homo sapiens) (UniProt P03372); test: Displacement of [3H]-estradiol from human recombinant ERalpha expressed in Sf21 cells at 10 uM after 2 hrs
T1 sequence (whole entry): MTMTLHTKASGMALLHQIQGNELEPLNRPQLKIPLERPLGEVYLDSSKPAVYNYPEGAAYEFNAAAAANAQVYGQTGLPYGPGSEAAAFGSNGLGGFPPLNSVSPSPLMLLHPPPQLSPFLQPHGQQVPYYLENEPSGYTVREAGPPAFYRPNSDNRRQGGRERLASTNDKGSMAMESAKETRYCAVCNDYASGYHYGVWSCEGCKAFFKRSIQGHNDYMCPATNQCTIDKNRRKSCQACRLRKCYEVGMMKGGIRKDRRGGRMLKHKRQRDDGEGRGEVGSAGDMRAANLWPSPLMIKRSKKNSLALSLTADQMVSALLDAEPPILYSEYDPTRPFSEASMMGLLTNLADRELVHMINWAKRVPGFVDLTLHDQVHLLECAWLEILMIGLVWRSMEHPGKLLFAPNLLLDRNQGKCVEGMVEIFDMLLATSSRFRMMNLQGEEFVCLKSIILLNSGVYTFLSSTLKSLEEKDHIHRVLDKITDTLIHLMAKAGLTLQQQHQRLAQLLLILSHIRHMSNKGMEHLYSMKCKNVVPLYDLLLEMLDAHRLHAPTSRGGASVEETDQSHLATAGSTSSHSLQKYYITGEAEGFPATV

[3] = molecular target: T2, Prostaglandin G/H synthase 2 (Homo sapiens) (UniProt P35354); test: Inhibition of human recombinant COX2 expressed in Sf21 cells using arachidonic acid as substrate at 10 uM preincubated for 15 mins before arachidonic acid addition measured after 5 mins
T2 sequence (whole entry): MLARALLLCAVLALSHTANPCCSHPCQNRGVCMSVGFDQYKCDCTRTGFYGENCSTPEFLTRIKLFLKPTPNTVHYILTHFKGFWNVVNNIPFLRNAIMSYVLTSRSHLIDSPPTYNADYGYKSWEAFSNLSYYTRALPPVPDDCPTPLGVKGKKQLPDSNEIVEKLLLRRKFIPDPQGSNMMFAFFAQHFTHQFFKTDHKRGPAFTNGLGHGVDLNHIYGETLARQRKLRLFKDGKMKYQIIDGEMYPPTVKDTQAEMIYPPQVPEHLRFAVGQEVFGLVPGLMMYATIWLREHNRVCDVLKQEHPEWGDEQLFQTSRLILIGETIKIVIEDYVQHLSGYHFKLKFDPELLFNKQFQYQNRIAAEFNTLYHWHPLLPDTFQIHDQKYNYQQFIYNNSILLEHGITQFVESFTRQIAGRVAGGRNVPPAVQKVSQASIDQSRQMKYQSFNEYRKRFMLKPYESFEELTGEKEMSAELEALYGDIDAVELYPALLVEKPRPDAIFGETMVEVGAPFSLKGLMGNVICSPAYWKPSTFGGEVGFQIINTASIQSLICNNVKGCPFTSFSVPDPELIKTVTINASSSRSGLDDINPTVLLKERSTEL

[4] = molecular target: T3, Prostaglandin G/H synthase 1 (Homo sapiens, UniProt P23219); test: Inhibition of human platelet COX1 using arachidonic acid as substrate at 10 uM preincubated for 15 mins before arachidonic acid addition measured after 15 mins
[5] = molecular target: T4, Prostaglandin G/H synthase 2 (Homo sapiens, UniProt P35354); test: Inhibition of COX2
T4 sequence (P35354 whole entry): T2 sequence (whole entry)

[6] = molecular target: T3, Prostaglandin G/H synthase 1; test: Inhibition of COX1

T3 sequence (P23219 whole entry): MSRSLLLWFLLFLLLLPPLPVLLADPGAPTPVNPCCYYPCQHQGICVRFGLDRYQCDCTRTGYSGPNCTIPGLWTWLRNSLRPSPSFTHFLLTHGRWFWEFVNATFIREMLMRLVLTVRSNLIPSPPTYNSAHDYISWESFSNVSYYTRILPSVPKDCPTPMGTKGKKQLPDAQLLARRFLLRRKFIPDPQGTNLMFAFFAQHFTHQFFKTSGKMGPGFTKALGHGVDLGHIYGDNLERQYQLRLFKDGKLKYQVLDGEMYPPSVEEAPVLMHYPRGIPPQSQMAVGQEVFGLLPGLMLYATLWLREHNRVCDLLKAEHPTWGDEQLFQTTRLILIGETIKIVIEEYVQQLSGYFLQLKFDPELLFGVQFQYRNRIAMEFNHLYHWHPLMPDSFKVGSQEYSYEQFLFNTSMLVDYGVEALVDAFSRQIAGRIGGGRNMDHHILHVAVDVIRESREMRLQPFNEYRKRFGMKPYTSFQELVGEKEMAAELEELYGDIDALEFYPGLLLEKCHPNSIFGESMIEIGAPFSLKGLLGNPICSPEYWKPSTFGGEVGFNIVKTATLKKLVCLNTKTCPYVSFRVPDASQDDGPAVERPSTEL
Sequence of Estrogen receptor beta (Homo sapiens) (Q92731 whole entry): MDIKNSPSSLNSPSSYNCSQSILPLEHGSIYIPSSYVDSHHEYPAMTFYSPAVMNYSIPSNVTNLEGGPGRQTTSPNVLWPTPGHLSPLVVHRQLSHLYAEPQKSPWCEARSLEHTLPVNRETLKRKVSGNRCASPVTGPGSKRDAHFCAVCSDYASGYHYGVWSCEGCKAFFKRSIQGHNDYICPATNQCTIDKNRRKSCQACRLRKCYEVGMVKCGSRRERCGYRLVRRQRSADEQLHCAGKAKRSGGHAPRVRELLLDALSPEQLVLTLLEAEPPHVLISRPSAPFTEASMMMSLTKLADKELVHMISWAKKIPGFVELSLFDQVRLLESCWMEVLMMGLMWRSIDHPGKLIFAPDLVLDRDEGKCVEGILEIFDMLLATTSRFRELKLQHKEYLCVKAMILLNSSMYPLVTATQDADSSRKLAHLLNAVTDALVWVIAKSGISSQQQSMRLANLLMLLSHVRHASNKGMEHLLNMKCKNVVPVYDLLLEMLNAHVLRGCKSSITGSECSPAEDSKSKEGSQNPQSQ

| SMILES | inhibition [1] | inhibition [2] | inhibition [3] | inhibition [4] | IC50 [5] | IC50 [6] |
| --- | --- | --- | --- | --- | --- | --- |
| CCCCC(=C(c1ccccc1)c1ccccc1)c1ccc([S+](C)([O-])=NC#N)cc1 (stereo not given) | 60% | 54% | 10% | 5% | – | – |
| CCCCC(=C(c1ccccc1)c1ccccc1)c1ccc([S+](C)(=N)[O-])cc1 (stereo not given) | 80% | 91% | 17% | 12% | – | – |
| CCCCC(=C(c1ccccc1)c1ccccc1)c1ccc(S(C)(=O)=O)cc1 | 77% | -6% | – | – | 14 nM | > 100000 nM |
| CC(=C(c1ccccc1)c1ccccc1)c1ccc([S+](C)(=N)[O-])cc1 (stereo not given) | 53% | 77% | – | 23% | – | – |
